Measurements taken from patent US20040102652A1, “Optically active2-aminotetralin derivatives, the processes for the preparation thereof and the therapeutical use of pharmaceutical compositions containing them” (priority 2000, published 2004).
“Also recorded” adds a separate entry of the source. Read-outs that look alike come from different tables or passages of the source.

What was measured:
[1] = target: T1, Central DA1 receptor (Rattus norvegicus, UniProt P18901); test: Binding study, rat striatum, [3H]-SCH23390
T1 construct: from tissue; host or cells: rat striatum
T1 sequence (P18901 whole entry): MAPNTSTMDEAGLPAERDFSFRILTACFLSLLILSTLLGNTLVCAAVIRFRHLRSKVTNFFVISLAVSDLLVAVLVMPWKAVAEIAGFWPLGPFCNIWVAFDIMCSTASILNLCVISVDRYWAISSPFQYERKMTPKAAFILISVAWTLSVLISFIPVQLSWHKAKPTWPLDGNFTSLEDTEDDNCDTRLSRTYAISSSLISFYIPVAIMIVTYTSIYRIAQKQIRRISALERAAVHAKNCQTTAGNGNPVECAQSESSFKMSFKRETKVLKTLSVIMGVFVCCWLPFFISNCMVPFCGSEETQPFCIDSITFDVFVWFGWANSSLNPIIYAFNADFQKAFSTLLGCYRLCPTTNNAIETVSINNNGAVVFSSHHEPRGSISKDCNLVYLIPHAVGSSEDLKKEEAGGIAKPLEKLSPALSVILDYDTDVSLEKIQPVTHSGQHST
Experimental: (§1) The affinity of the enantiomers for adrenergic and dopaminergic receptors was tested by binding studies in cerebral and peripheral tissues. The results are reported in Table 1 compared with CHF 1024 racemate in terms of inhibition constant (Ki) expressed as nanomolar concentration (nM).

[2] = target: Central DA2-receptor (Rattus norvegicus, UniProt P61169); test: Binding study, rat striatum, [3H]-spiperone; details: for Ki: rat striatum, [3H]-spiperone
Central DA2-receptor, sequence (P61169 whole entry): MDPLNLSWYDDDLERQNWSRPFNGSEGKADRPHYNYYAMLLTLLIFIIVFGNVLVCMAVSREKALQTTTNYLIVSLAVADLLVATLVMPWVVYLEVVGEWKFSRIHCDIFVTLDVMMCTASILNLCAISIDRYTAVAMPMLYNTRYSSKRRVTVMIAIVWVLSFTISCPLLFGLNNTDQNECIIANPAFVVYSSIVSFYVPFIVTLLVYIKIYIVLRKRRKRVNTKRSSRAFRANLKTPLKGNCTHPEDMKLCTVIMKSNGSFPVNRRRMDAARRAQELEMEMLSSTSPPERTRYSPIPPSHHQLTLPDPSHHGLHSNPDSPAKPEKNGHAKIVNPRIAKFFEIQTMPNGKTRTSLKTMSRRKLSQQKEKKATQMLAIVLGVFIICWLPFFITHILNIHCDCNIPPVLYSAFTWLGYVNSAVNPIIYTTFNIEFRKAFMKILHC
Experimental: as §1

[3] = target: Central α1-receptor; test: Binding study, rat cerebral cortex, [3H]-prazosin
Experimental: as §1

[4] = target: Central α2-receptor; test: Binding study, rat cerebral cortex, [3H]-rauwolscine; details: for Ki: rat cerebral cortex, [3H]-rauwolscine
Experimental: as §1

[5] = target: T2, β1-receptor (Rattus norvegicus, UniProt P18090); test: Binding study, rat lung, [3H]-(−)dihydroalprenolol
T2 construct: from tissue; host or cells: rat lung
T2 sequence (P18090 whole entry): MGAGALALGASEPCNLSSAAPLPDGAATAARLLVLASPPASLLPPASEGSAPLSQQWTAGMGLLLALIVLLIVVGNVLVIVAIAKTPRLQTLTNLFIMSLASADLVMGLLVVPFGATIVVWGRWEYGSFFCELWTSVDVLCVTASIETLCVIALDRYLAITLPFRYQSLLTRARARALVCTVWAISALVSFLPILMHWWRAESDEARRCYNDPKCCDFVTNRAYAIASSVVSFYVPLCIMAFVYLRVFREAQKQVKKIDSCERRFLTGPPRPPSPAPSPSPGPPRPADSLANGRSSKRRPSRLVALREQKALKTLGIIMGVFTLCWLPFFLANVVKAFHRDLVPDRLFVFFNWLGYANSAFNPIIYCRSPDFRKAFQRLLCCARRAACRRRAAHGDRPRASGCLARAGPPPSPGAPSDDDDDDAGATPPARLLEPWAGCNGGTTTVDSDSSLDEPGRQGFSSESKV
Experimental: as §1

[6] = target: T3, β2-receptor (Rattus norvegicus, UniProt P10608); test: Binding study, rat lung, [3H]-(−)dihydroalprenolol
T3 construct: from tissue; host or cells: rat lung
T3 sequence (P10608 whole entry): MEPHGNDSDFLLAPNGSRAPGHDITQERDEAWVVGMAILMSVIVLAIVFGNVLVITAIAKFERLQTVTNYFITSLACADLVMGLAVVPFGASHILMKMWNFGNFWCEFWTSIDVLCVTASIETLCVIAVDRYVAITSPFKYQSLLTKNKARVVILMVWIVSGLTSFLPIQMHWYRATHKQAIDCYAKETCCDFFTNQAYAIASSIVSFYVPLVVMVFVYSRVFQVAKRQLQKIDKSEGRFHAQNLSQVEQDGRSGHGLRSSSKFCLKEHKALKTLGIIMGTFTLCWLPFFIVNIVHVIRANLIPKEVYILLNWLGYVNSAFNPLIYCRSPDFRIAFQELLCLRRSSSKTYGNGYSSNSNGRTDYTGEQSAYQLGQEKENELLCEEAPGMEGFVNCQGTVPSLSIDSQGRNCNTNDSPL
Experimental: as §1

[7] = target: Pre-synaptic DA2 receptor (Oryctolagus cuniculus, UniProt G1T1Q0); test: Electrically stimulated rabbit rectococcigeus muscle, inhibition of contraction; details: read-out: effectiveness (α)
Pre-synaptic DA2 receptor, sequence (G1T1Q0 1-443): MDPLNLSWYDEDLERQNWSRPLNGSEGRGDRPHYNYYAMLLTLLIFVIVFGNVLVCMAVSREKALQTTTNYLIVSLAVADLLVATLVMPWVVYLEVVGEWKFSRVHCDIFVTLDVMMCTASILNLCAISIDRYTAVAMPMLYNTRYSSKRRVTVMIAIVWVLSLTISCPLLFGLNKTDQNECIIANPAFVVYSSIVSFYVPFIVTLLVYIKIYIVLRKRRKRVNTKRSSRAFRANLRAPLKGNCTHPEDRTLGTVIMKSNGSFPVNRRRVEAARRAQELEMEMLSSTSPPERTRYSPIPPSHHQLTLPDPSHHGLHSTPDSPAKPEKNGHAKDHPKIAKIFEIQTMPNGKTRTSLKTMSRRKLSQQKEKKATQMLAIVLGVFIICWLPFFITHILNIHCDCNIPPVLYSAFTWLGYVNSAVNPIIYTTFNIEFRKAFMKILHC
Experimental: (§2) The pharmacological activity of the enantiomers toward the same receptors was also tested in isolated tissue preparations. […] EC50 is the concentration inducing 50% of the maximal response and is expressed in mols/liter (M).

[8] = target: Pre-synaptic DA2 and α2 receptor; test: Perfused rabbit ear artery, inhibition of electrically-induced contraction; details: for pD2 (−log EC50): EC50 in M
Experimental: as §2

[9] = target: T4, β2-receptors (Cavia porcellus, UniProt Q8K4Z4); test: Guinea-pig tracheal strips contracted with carbachol, relaxing effect
T4 construct: was also tested in isolated tissue preparations; from tissue; host or cells: guinea-pig tracheal strips
T4 sequence (Q8K4Z4 whole entry): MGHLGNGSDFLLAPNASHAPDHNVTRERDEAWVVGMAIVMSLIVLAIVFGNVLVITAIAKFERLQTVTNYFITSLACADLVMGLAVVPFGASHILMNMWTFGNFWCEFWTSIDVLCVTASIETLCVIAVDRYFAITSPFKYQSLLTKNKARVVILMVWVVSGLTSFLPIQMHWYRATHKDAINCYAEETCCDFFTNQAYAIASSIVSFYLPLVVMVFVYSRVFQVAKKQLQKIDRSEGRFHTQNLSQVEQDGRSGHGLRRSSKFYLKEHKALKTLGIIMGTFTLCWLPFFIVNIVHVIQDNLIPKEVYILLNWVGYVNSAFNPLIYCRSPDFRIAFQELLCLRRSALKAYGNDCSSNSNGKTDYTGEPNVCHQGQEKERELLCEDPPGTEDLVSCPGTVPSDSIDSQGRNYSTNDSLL

[10] = target: β1-receptor (Cavia porcellus, UniProt H0W3H1); details: guinea pig, read-out: effectiveness (α)
β1-receptor (Cavia porcellus, UniProt H0W3H1), sequence (H0W3H1 1-470): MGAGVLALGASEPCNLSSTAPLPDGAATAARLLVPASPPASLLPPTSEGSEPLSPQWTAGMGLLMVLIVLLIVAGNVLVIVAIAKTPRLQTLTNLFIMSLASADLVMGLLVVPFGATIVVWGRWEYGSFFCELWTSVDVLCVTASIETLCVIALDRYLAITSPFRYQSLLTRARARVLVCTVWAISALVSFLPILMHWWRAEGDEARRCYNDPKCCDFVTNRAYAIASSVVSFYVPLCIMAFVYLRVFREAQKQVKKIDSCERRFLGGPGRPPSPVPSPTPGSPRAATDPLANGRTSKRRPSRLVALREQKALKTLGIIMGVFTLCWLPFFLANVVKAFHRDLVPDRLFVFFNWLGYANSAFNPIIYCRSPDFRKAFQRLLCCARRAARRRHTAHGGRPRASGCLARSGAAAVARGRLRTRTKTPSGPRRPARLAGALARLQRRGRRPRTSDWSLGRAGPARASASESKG

[11] = test system: α1 receptor; details: background statement; cited from earlier work
[12] = after oral administration of the racemate
[13] = test system: plasma and tissular esterases; details: after administration through different routes (oral, transdermal); cited from earlier work
[14] = Diffraction studies of crystal modifications; details: temperature dependent
[15] = test system: anaesthetized normotensive rats; test: Arterial pressure in anaesthetized normotensive rats, intravenous infusion; type: in vivo, rat; details: intravenous infusion for 30 min
Experimental: In anaesthetized normotensive rats with recording of the arterial pressure, the effects induced by intravenous infusion for 30 min of CHF 1024 enantiomers compared with the racemate were evaluated. Control animals only received the vehicle. The results are reported in FIG. 1 as mean values and standard error.

[16] = test system: conscious spontaneously hypertensive rats; test: Arterial pressure and heart rate in conscious spontaneously hypertensive rats (telemetry); type: in vivo, rat; details: for recovery to basal values after treatment: after interruption of s.c. treatment; for effect on heart rate (words, summary): subcutaneous administration for 7 days
[17] = rat striatum, [3H]-SCH23390, read-out: Ki
[18] = rat lung, [3H]-(−)dihydroalprenolol, read-out: Ki
[19] = EC50 in M, guinea-pig tracheal strips, read-out: pD2 (−log EC50) (converted)
[20] = higher dose (6 nmol/kg/min) s.c., 7 days

Row | Structure (SMILES) | Ki [3] | Ki [4] | Emax [7] | pD2 (−log EC50) ([8]; rabbit ear artery) | effectiveness (α) ([8]; rabbit ear artery) | effectiveness (α) ([9]; guinea-pig tracheal strips) | Emax [10] | structural rearrangement of the crystal form (polymorphic stability) [14] | Ki [1, 17] | Ki [2] | Ki [5, 18] | Ki [6, 18] | EC50 [9, 19] | effect on arterial pressure (hypotensive response) [15] | effect on heart rate ([16]; 3 nmol/kg/min s.c., 7 days) | recovery to basal values after treatment [16] | effect on heart rate (words, summary) [16] | further results
1 | CNC1CCc2c(ccc(O)c2O)C1 (racemic) [CHF 1024, (±)-5,6-dihydroxy-2-methylaminotetralin, reference compound] | 16000 nM | 260 nM | 96% | 9.0 | 0.94 | 0.96 | 81% |  |  |  |  |  |  |  |  |  |  | Ki [1]: 13000 nM; Ki ([2]; read-out: Ki): 290 nM; Ki [5]: 45000 nM; Ki [6]: 1500 nM; EC50 [9]: 251 nM; agonist activity on α1 receptor [11]: negligible
2 | CNC1CCc2c(ccc(OC(=O)C(C)C)c2OC(=O)C(C)C)C1 (racemic) [CHF 1035, (±)-(R,S)-5,6-Diisobutyroyloxy-2-methylaminotetralin] |  |  |  |  |  |  |  | form I shows two remarkable structural rearrangements |  |  |  |  |  |  |  |  |  | AUC of the dextro form relative to that of the laevo form [12]: about one half; conversion into the desesterified form CHF 1024 [13]: quickly and completely converted
3 | CN[C@H]1CCc2c(ccc(OC(=O)C(C)C)c2OC(=O)C(C)C)C1.Cl [CHF 1810, (−)-(S)-5,6-diisobutyroyloxy-2-methylaminotetralin hydrochloride] |  |  |  |  |  |  |  | does not show any structural rearrangement below 100 °C |  |  |  |  |  |  |  |  |  | 
4 | CN[C@@H]1CCc2c(ccc(O)c2O)C1 [CHF 1869] | 21000 nM | 1600 nM | 87% | <5.0 | 0.92 | 0.97 | 83% |  | 7400 nM | 2400 nM | 90000 nM | 1400 nM | 251 nM | rapid onset and disappearance of the hypotensive effects; also recorded: more rapid but less lasting response | no reduction of heart rate | faster than with CHF 1870 | no reduction of heart rate | activity on α2 and DA2 receptors ([8]; isolated tissue preparations): poor activity on α2 and DA2 receptors; hypotensive effect ([16]; 3 nmol/kg/min s.c., 7 days): slight, although noticeable, hypotensive effect; effect on heart rate [16, 20]: no reduction of heart rate is observed, which even increases during the first 2-3 days of treatment; hypotensive response [16, 20]: comparable to that caused by its optical antipode
5 | CN[C@H]1CCc2c(ccc(O)c2O)C1 [CHF 1870, (−)-(S)-5,6-dihydroxy-2-methylaminotetralin] | 15000 nM | 130 nM | 91% | 9.6 | 0.92 | 0.97 | 91% |  | 6800 nM | 120 nM | 40000 nM | 1000 nM | 398 nM | dose-dependent reduction of the arterial pressure which was maintained even after infusion was discontinued; also recorded: hypotensive response slightly lower but remarkably longer-lasting than that of the racemate | greater reduction of heart rate compared with the racemate | took place more slowly | more marked reduction of heart rate than an equivalent dose of the racemate | affinity for DA2-dopaminergic receptors relative to the dextro enantiomer (CHF 1869) ([2]; from Table 1): about 20 times; affinity for α2-adrenergic receptors relative to the dextro enantiomer (CHF 1869) ([4]; from Table 1): ~10 times; potency relative to its optical antipode ([8]; rabbit ear artery): at least 10000 times; reduction of arterial pressure ([16]; 3 nmol/kg/min s.c. osmotic minipump, 7 days): 20-30 mmHg; reduction of heart rate [16, 20]: about 70 beats/minute
